Results: patent US20130259929A1, “USE OF A PHOSPHOPEPTIDE ABLE TO BLOCK HER3/P85 INTERACTION FOR THE TREATMENT OF HER2 HYPER-EXPRESSING TUMOURS” (priority 2010, published 2013)
Non-standard residues stand in square brackets, D forms with d. No end group written: not given here. pY = N[C@@H](Cc1ccc(OP(=O)(O)O)cc1)C(=O)O

Tests used:
BT474 xenograft = experiment: Electroporation tumour therapy of BT474 xenografts; type: in vivo, SCID mice; details: Herceptin i.p. (FIG. 11A)
Description: Xeno-grafts. In vivo tests have been carried out using 40 day old SCID female mice (Harlan Laboratories, Milan, IT). At day 0, animals have been totally anesthetized with intramuscular injection of 400 μg/animal (average weight 25 g) of Zoletil (Virbac) containing 0.12% Xylor (Xylazine), and transplanted subcutaneously (s.c.), in intrascapular mouse region with pellet of 17-h-extradiol (1.7 mg/sustained release pellet over 60 days, Innovative Research of America, Sarasota, Fla.). […] Tumour growth has been monitored two times weekly using calibration along two orthogonal axes: length (L) and depth (VV). The tumour volume (V) has been calculated using the formula V=L*(W2)/2.
Electroporation tumour therapy. […] Therapy has been repeated once weekly, and tumour size monitored up to 70 days.

p85 and HER3 interaction = target: T1, p85 and HER3 interaction (Homo sapiens, UniProt P27986); experiment: Immunoprecipitation with anti-p85, blot anti-HER3, in transfected cells; type: cell-based; details: three cell lines, 48 hr after Lipofectamine transfection (FIG. 2B)
T1 construct: Whole cell lysates have been imunoprecipitated with anti-p85 antibody; endogenous in cells; host or cells: MCF7, BT474, MDA-MB-453
Text: Immunoprecipitation. MCF7, BT474 and MDA-MB-453 cell lines have been plated at 5×10^5 concentration in 60 mm plates. On subsequent day cells have been transfected with 1257 phosphopeptide and contrrol phosphopeptide. […] Whole cell lysates have been imunoprecipitated with anti-p85 antibody (#06-496) in the presence of protein G (Pierce, Milan, IT). Whole proteins and immunocomplexes then have been subjected to 8% SDS-PAGE and transferred on nitrocellulose filter. The proteins have been detected by immunodecoration using anti-ErbB3 and anti-p110α antibodies.
(§1) The peptide has been transfected using Lipofectamine in all three cell lines. […] This binding is required in order PI3K kinase to be activated.

HER3 = HER3 expression level (Western blot) after peptide transfection; type: cell-based, human; details: after peptide treatment (FIG. 4A); poorly appreciable in MDA-MB-453
Description: (§2) Treatments and lmmunodecorations. […] Briefly the cells have been plated at 5×10^5 concentration in 60 mm plates. […] At the end of the treatment the cells have been lysed with RIPA buffer [150 mM NaCl, 1% NP-40, 0,5% sodium deoxycholate (DOC), 0.1% SDS, 50 mM TrisHCl (pH 8), 1 mM PMSF, 1 mM EGTA, 50 mM NaF, 50 mM Na3VO4 and protease inhibitors (Roche, Milano, IT)] in order to analyze the expression levels of phosphorylated and total ErbB-3, ErbB-2, ERK and HSP-70 proteins. In order to analyze the levels of Akt phosphorylation and expression, the cells have been lysed in NP-40 buffer [1% NP-40, 10% glycerol, 137 mM NaCl, 20 mM TrisHCl (pH 7.4), 50 mM NaF, 1 mM PMSF, 5 mM Na3VO4, protease inhibitors (Roche, Milano, IT)]. Cell lysates have been incubated on ice for 20 minutes and centrifuged at 14000 rpm for 20 minutes. RIPA buffer obtained cell extracts have been boiled for 5 minutes at 95° C., while NP40 buffer lysed samples have been boiled at 65° C. for 5 minutes. Samples have been subjected to SDS-PAGE and transferred on nitrocellulose filters (Bio-Rad, Milan, IT). Then the filters have been incubated with interest antibodies, washed and incubated with specific secondary horse radish peroxidase (HRP) conjugated antibodies. After thorough washing, nitrocellulose peroxidase activity has been detected by chemiluminescence (Lite-blot-Euroclone, Milano, IT)

[1] = target: T2, HER3 binding to GST-N-SH2p85 fusion protein (Homo sapiens, UniProt P27986); experiment: GST pull-down; details: lysates of BT474, MCF7 and MDA-MB-453 cells, in vitro (FIG. 2A, FIG. 3)
T2 construct: containing SH2 domains in N-terminal portion of p85 sub-unit
Description: GST pull-down. MCF-7, BT474 and MDA-MB-453 cell lines have been washed 2 times with cold PBS and extracted with lysis buffer [(50 mM Tris HCl (pH 7.4), 250 mM NaCl, 0,1% Triton X-100, 5 mM EDTA, 50 mM NaF, 1 mM PMSF, 5 mM Na3VO4 and 50 mmol/L of protease inhibitors (Roche, Milano, IT)]. After 20 minute ice-cold incubation, the lysates have been clarified by centrifugation at 14000 rpm for 20 minutes. The cellular extracts (1 mg sample) have been incubated for 4 hours at 4° C. in the presence of GST bound gluthatione-agarose beads or GST-p85 fusion protein (kindly supplied by doctor S. Giordano), in the presence or absence of 1257 phosphopeptide or scr peptide used as control. Then the interaction complexes have been washed six times with lysis buffer and subsequently beads eluted using Laemli Buffer 2× [(140 mM SDS, 432 mM Glycerol, 1.6 mM Bromophenol blue, 120 mM Tris HCl (pH 6.8), 8% β-mercaptoethanol)]. The proteins have been separated using 8% SDS-PAGE and transferred on nitrocellulose filter. The filter has been then immunodecorated with anti ErbB3 antibody.
As in FIG. 2A is apparent that 1257 phosphopeptide effectively in vitro binds p85 sub-unit thus inhibiting HER3 receptor binding.

[2] = target: T3, p85 and p110a (PI3K catalytic sub-unit) interaction (Homo sapiens, UniProt P27986); experiment: Immunoprecipitation with anti-p85, blot anti-p110α, in transfected cells; type: cell-based; details: transfected cells (FIG. 2D)
T3 construct: Whole cell lysates have been imunoprecipitated with anti-p85 antibody; endogenous in cells; host or cells: MCF7, BT474, MDA-MB-453
Description: Immunoprecipitation. MCF7, BT474 and MDA-MB-453 cell lines have been plated at 5×10^5 concentration in 60 mm plates. On subsequent day cells have been transfected with 1257 phosphopeptide and contrrol phosphopeptide. After 40 hours the cells have been washed two times with cold PBS and extracted with lysis buffer [(50 mM Tris HCl (pH 7.4), 250 mM NaCl, 0.1% Triton X-100, 5 mM EDTA, 50 mM NaF, 1 mM PMSF, 5 mM Na3VO4 e 50 mmol/L protease inhibitors (Roche, Milan, IT)]. Whole cell lysates have been imunoprecipitated with anti-p85 antibody (#06-496) in the presence of protein G (Pierce, Milan, IT). Whole proteins and immunocomplexes then have been subjected to 8% SDS-PAGE and transferred on nitrocellulose filter. The proteins have been detected by immunodecoration using anti-ErbB3 and anti-p110α antibodies.
as §1

BT474 cells = experiment: Soft agar anchorage-independent growth; type: cell-based, human; details: compared to parental or scr peptide transfected cells
Description: (§3) Soft agar. […] Briefly cells (1×10^4) have been re-suspended in 5 ml of 0.3% agar in RPMI or DMEM supplemented with 10% FCS, and quickly stained on a solid layer of 1.2% agar in DMEM/RPMI. Cultures have been carried out for 4 weeks. Then colonies have been stained with viable colony specific neutral red solution (Sigma, Milan, IT), and then counted. Photographies have been taken using Leica DM IRE2 microscope and Leica FW4000 software (Leica Microsystems, Milan, IT).
(§4) Then it has been attempted to understand whether the peptide is suitable to reduce the cell ability to grow under anchorage-independence conditions.

MCF7 cells = experiment: Soft agar anchorage-independent growth; type: cell-based, human; details: compared to parental or scr peptide transfected cells
Description: as §3, §4

[3] = system: PI3K activity measured as Akt phosphorylation; experiment: Akt phosphorylation (Western blot) after peptide transfection; type: cell-based, human; details: for inhibition of PI3K activity measured as inhibition level of Akt phosphorylation: MCF7 cells, peptide transfection at different doses (FIG. 12)
Description: Peptide transfection. In order to inhibit the p85 and ErbB3 interaction, MCF7, BT474 and MDA-MB-453 cell lines have been transfected using 80, 100, and 180 μg, respectively, of the following phosphopeptides:
as §2

T1 sequence (P27986 whole entry): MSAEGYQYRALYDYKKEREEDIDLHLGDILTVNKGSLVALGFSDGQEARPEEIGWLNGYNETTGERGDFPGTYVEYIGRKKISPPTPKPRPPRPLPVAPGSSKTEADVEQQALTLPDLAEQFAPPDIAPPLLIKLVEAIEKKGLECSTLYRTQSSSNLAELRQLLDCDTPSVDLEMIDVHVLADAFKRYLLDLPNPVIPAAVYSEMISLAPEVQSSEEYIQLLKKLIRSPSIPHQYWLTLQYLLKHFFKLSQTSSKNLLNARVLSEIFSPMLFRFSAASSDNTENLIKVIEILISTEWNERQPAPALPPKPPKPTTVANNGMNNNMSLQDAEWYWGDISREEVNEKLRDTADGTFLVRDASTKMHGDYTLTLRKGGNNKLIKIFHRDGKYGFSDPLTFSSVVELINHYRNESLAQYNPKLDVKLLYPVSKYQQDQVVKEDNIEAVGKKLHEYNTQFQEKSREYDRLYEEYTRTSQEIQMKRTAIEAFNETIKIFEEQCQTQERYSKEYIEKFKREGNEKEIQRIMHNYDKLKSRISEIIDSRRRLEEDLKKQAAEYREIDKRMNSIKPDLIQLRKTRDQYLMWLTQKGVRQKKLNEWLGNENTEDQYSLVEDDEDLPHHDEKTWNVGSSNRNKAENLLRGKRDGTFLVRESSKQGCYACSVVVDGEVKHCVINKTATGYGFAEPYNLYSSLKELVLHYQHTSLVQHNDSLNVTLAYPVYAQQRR
T3 sequence (P27986 whole entry): as above
T2 sequence (P27986 333-428 limits assumed): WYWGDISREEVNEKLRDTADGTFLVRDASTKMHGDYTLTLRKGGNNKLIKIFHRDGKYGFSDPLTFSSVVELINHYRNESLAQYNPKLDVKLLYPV

RDGGGPGGDpYAAMGACPA (RDGGGPGGD[pY]AAMGACPA; listed as Homo sapiens) [1257 phosphopeptide]
tumour mass compared to not treated control (BT474 xenograft): strongly reduces the tumour mass | inhibition of p85 and HER3 interaction (p85 and HER3 interaction): inhibits effectively p85 and HER3 interaction | total level of HER3 (HER3): decrease | inhibition of HER3 and p85 SH2 domain binding [1]: inhibits in specific way HER3 and p85 SH2 domain binding | inhibition of p85 and p110a interaction [2]: inhibits p85 from interacting with p110a | reduction of colony number (BT474 cells): up to 80% | reduction of colony number (MCF7 cells): up to 80% | phosphorylation of Akt ([3]; MCF7, BT474 and MDA-MB-453 cells (FIG. 4A), Herceptin where combined): inhibition the phosphorylation of Akt | inhibition of PI3K activity measured as inhibition level of Akt phosphorylation [3]: remarkably inhibits Akt phosphorylation | inhibition of PI3K activity measured as inhibition level of Akt phosphorylation ([3]; listed as 1257 peptide): high efficiency | time after transfection for which Akt phosphorylation is inhibited ([3]; stability inside of cell (FIG. 5A)): up to 6 days
